Earlier results as cited in patent EP2739646B1, “COMPREHENSIVE BUFFER SYSTEM FOR RENATURING HUMAN PROINSULIN OR PROINSULIN DERIVATIVES” (Hermann, Stefan, priority 2011, dated 2012).
Where two headings read alike, the source gives them in different places.

How the values were obtained:
[1] = not given; remark: listed apart in the source

SMILES | pKa (first value listed) | pKa (second value listed) | water solubility ([1]; at 25°C) [g/100g water] | pKa (third value listed) | water solubility ([1]; temperature not given) [g/100ml]
O=C(O)[C@@H]1CCCN1 [proline] | 2.0 | 10.6 | – | – | –
CCCCC(=O)O [valeric acid] | – | – | – | – | 4.97
O=C(O)CCCC(=O)O [glutaric acid] | – | – | – | – | 64.0
C[C@H](N)C(=O)O [alanine] | – | – | 16.5 | – | –

Now from value to compound, other results behind:

pKa (first value listed) | pKa (second value listed) | water solubility ([1]; at 25°C) [g/100g water] | pKa (third value listed) | SMILES | water solubility ([1]; temperature not given) [g/100ml]
2.05 | 10.25 | > 50 | 8.00 | N[C@@H](CS)C(=O)O [cysteine] | –
2.01 | 9.4 | – | – | N=C(N)NCCC[C@H](N)C(=O)O [arginine] | –
